Laboratory results: patent US20220287998A1, “USE OF C3aR IN PREPARING DRUG FOR PREVENTING OR TREATING POLYCYSTIC KIDNEY DISEASE” (Shanghai Changzheng Hospital, priority 2021, published 2022)

Assays:
Pkd1 knockout mouse = assay: Apoptosis of cyst cells in Pkd1 knockout mouse; assay type: in vivo
[1] = tested on: mouse cyst epithelial cells; assay: Ki67 immunohistochemical staining of kidney slices, proliferation of cyst epithelial cells; assay type: in vivo, mice; conditions: treatment group versus model control group
Method: In order to explore whether the proliferation of mouse cyst epithelial cells was restricted after treatment, immunohistochemical staining for Ki67 was performed on kidney slices of each group of mice, wherein Ki67 was a nuclear protein that could reflect the cell proliferation level.

Pkd1 knockout mice = assay: Effect of C3aR inhibitor SB290157 on cyst indexes and kidney function of Pkd1 knockout mice; assay type: in vivo
Description: Experimental animals: the animals used in this experiment were PKD1^flox/flox-Tamoxifen-Cre mice, gifted by professor Wüthrich RP, University of Zurich, Switzerland, and were bred in Specific Pathogen Free (SPF) Laboratory Animal Center of Naval Medical University [License No: SYXK (Shanghai): 2017-0004].
The blood creatinine, urea nitrogen, kidney/body weight, and cyst index of each group of mice were compared.
The main reagents used were a C3aR inhibitor (Calbiochem, SB290157, Germany), Creatinine Assay Kit (Nanjing Jiancheng Bioengineering Institute), Urea Nitrogen Assay Kit (Nanjing Institute of Built Bioengineering), and dimethyl sulfoxide (DMSO) (Amresco, 1963C070, USA).
Serum creatinine (μmol/L)=[(Sample A2-K*Sample A1)−(Blank A2-K*Blank A1)]/[(Standard A2-K*Standard A1)−(Blank A2-K*Blank A1)]*Standard Concentration; Formula:
Urea nitrogen (mmol/L)=(Assay OD−Blank OD)/(Standard OD−blank OD)*Standard Concentration (10 mmol/L)*Dilution multiple;
After HE staining, scanning was performed with a whole slide image scanner, and pictures were exported and saved using CaseViewer software. The total pixel value of the whole kidney in Photoshop software was calculated as A1, a cyst area was selected and calculated the total pixel value as A2, wherein the ratio of A2 to A1 is the cyst index.

[2] = tested on: Pkd1 conditional knockout mice; assay: F4/80 immunofluorescence staining, macrophage infiltration in kidney tissue of Pkd1 conditional knockout mice; assay type: in vivo; conditions: 1 mg/kg i.p. once a day; treatment group versus model control group
Description: F4/80 in the kidney tissues of the wild group, the model control group and the SB290157 treatment group were stained by immunofluorescence to compare the macrophage infiltration.

[3] = tested on: ADPKD-related pathway protein; assay: Western blot of ADPKD-related signaling pathway proteins in kidney tissue; assay type: in vivo, mice
Description: In order to further explore the therapeutic mechanism of SB290157 on polycystic kidney mice, the expression of ADPKD-related pathway protein was detected by Western blot.

[4] = tested on: Han:sPRD rats and PKD1 knockout mice; conditions: cited from earlier work
RAW264.7 cells [5] = assay: C3a stimulation of macrophages, RT-PCR of iNOS, TNF-α and IL-6 mRNA; assay type: cell-based, Murine; conditions: 24 hours
Method: (§1) The C3aR expression on the cell surface affected the sensitivity of downstream signals induced by C3a, so C3a-C3aR should act mainly on M1-type macrophages, which was consistent with the downstream pro-inflammatory effect. To verify the effect of C3a stimulation on the expression of M1-type macrophage inflammatory factor, RAW264.7 cells were divided into 5 groups: (1) a control group: without any stimulation; (2) a LPS group: stimulated with 100 ng/ml LPS; (3) a LPS+C3a group: stimulated with 100 ng/ml LPS+100 ng/ml C3a; (4) a IL-4 group: stimulated with 20 ng/ml IL-4; (5) a IL-4+C3a group: stimulated with 20 ng/ml IL-4+100 ng/ml C3a. After 24 hours, cell RNA was extracted, and RT-PCR was used for detecting iNOS, TNF-α and IL-6 mRNA level in each group of cells, wherein the primer sequence used by RT-PCR was as follows: iNOS primer sequence Mouse F: 5′-[…]-3′ (SEQ ID NO:9), Mouse R: 5′-[…]-3′ (SEQ ID NO:10), IL-6 primer sequence Mouse F: 5′-[…]-3′ (SEQ ID NO:11), Mouse R: 5′-[…]-3′ (SEQ ID NO:12), TNF-α primer sequence Mouse F: 5′-GGCATGGATCTCAAAGACA-3′ (SEQ ID NO:13), Mouse R: 5′-TGGGCTCATACCAGGGTT-3′ (SEQ ID NO:14).

RAW264.7 cells [6] = assay: C3a stimulation of macrophages, Western blot of p-Akt, p-ERK, p-P65, p-STAT1 and TNF-α; assay type: cell-based, Murine; conditions: 24 hours
Method: In order to explore the mechanism of pro-inflammatory effects of C3a-C3aR on M1-type macrophages, RAW264.7 cells were divided into 4 groups with LPS as a stimulation factor and C3a as an intervention factor: (1) a control group (without any stimulation); (2) a C3a (100 ng/ml) stimulation group; (3) a LPS (100 ng/ml) stimulation group; (4) a C3a (100 ng/ml)+LPS (100 ng/ml) stimulation group. After 24 hours, cell proteins in each group were extracted, and Western blot was used for detecting the expression of p-Akt, p-ERK, p-P65, p-STAT1 and TNF-α. […] Akt and ERK may regulate the apoptosis and proliferation of M1-type macrophages, while NF-κB and STAT1 was an important signaling pathway for polarization and related inflammation of M1-type macrophage. Therefore, it is speculated that C3a-C3aR may promote the activation of Akt, ERK, STAT1 and NF-κB pathway in M1-type macrophages, and then promote the secretion of TNF-α inflammatory factors by M1-type macrophages.

RAW264.7 cells [7] = assay: TNF-α level in macrophage culture supernatants by Elisa; assay type: cell-based, Murine; conditions: culture supernatant, after C3a stimulation
Method: as §1
The TNF-α level in the culture supernatants of macrophages from different treatment groups were detected by Elisa. […]

[8] = treatment group compared with model control group
[9] = treatment group compared to model control group
[10] = M1-type macrophages (100 ng/ml LPS) + 100 ng/ml C3a
[11] = M1-type macrophages, C3a 100 ng/ml + LPS 100 ng/ml

With `N=C(N)NCCCC(NC(=O)COCC(c1ccccc1)c1ccccc1)C(=O)O` (stereo not drawn) [SB290157] the apoptosis (Pkd1 knockout mouse) was “increasing”, the “number of kidney Ki67 positive staining cells” value [1] was “significantly lower” and the “double kidney weight/body weight ratio (2KW/BW)” value (Pkd1 knockout mice; Pkd1 knockout mice, 1 mg/kg i.p. once a day, day 28, model control 0.112±0.006, wild 0.012±0.000) was 0.043±0.007. It also gave a blood urea nitrogen (Pkd1 knockout mice; Pkd1 knockout mice, 1 mg/kg i.p. once a day, day 28, model control 80.4±6.0, wild 6.8±0.7) of 26.3 ± 6.5 mmol/L, a serum creatinine (Pkd1 knockout mice; Pkd1 knockout mice, 1 mg/kg i.p. once a day, day 28, model control 90.0±3.6, wild 13.0±1.2 μmol/L) of 29.3±3.4 μm and a cyst index (Pkd1 knockout mice; Pkd1 knockout mice, 1 mg/kg intraperitoneal once a day from postnatal day 12, sacrificed day 28, model control 49.9±1.9%) of 35.3±1.9%. The “cyst area (HE staining)” value (Pkd1 knockout mice; [8]) was “reduction”, the kidney volume (Pkd1 knockout mice; [8]) was “reduced” and the “positive rate of F4/80 in the kidney tissue (macrophage infiltration)” value [2] was “significantly lower”. The C3aR level [3] was “reduced”, the “expression of p-Akt protein” value [3, 9] was “down-regulated” and the “expression of p-ERK protein” value [3, 9] was “down-regulated”. For the same molecule, the “expression of p-P65 protein” value [3, 9] was “down-regulated”.
For `O=C(/C=C/c1ccc(O)c(O)c1)O[C@H](Cc1ccc(O)c(O)c1)C(=O)O` [rosmarinic acid], the “growth of kidney cysts” value [4] is given as “inhibit”, the “infiltration of kidney interstitial macrophages” value [4] is given as “significantly reduce” and the kidney function [4] is given as “improve”.
With “C3a: produced by activation of complement C3; promotes inflammatory cell infiltration; used at 100 ng/ml to stimulate macrophages” the “pro-inflammatory effect on M2-type macrophages” value (RAW264.7 cells [5]; 20 ng/ml IL-4 + 100 ng/ml C3a) was “no significant pro-inflammatory effect”, the “IL-6 mRNA level” value (RAW264.7 cells [5]; [10]) was “remarkably up-regulated” and the “TNF-alpha mRNA level” value (RAW264.7 cells [5]; [10]) was “remarkably up-regulated”. For the same molecule, the “iNOS mRNA level” value (RAW264.7 cells [5]; M1-type macrophages (100 ng/ml LPS) + 100 ng/ml C3a, versus LPS group) was “up-regulated”, the “stimulatory effect on M0-type macrophages (p-Akt, p-ERK, p-P65, p-STAT1, TNF-α)” value (RAW264.7 cells [6]; C3a 100 ng/ml alone) was “not significant” and the “expression of TNF-α protein” value (RAW264.7 cells [6]; [11]) was “further up-regulated”. For the same molecule, the “expression of p-Akt protein” value (RAW264.7 cells [6]; [11]) was “further up-regulated”, the “expression of p-ERK protein” value (RAW264.7 cells [6]; [11]) was “further up-regulated” and the “expression of p-P65 protein” value (RAW264.7 cells [6]; [11]) was “further up-regulated”. For the same molecule, the “expression of p-STAT1 protein” value (RAW264.7 cells [6]; [11]) was “further up-regulated” and the “TNF-α level secreted by M1-type macrophages” value (RAW264.7 cells [7]) was “further increased”.
For `[Cl][Co][Cl]` [cobalt chloride], the “growth of kidney cysts” value [4] is listed as “inhibit”, the “infiltration of kidney interstitial macrophages” value [4] is listed as “significantly reduce” and the kidney function [4] is listed as “improve”.
